In patent US8785424B2, “ngCycloartanone derivatives with anticancer activity” (Pierre Fabre Medicament, priority 2009, dated 2014):

System: proteasome
Test: Cellular proteasome inhibition test: accumulation of 4Ub-Luc reporter (luciferase activity) in DLD-1 4Ub-Luc cell line
Assay type: cell-based, human
Settings: DLD-1 4Ub-Luc cells, 8 hours, epoxomicin = 100%
Description: Biological tests were carried out according to protocols described in the following articles: Ausseil F. et al. J. Biomol Screen. 2007, 12, 106-116 and Vandenberghe I. et al. Biochemical Pharmacology 2008, 76, 453-462.
In order to select novel proteasome inhibitor compounds, it is necessary to indirectly measure the activity of this proteasome within cells. To this end, we constructed a stable cell line, DLD-1 4Ub-Luc, arising from a human colon cancer cell line, which produces a chimeric reporter protein called 4Ub-Luc. This protein is a fusion between a 4-ubiquitin (4Ub) label and luciferase (Luc). This label is capable to direct every proteins that carry it toward the proteasome. The 4Ub-Luc protein is thus efficiently degraded by the proteasome, in contrast to the “wild” non-fused Luc protein. When the DLD-1 4Ub-Luc cell line is treated with a proteasome inhibitor, the fusion protein is much less efficiently degraded and accumulates in the cell. This accumulation is detected by an increase in luciferase activity in the treated extract compared to the extract from untreated cells. The control consists of verifying that the inhibitor has no effect on accumulation of the wild Luc protein produced by the stable DLD-1 RF cell line. For both cell lines and for each product an induction factor is determined for the product tested (or the reference) corresponding to the ratio between the luciferase activities measured in cells treated with this product (or the reference) and cells treated with solvent alone.
The product's activity is then defined by its relative induction factor, i.e., the ratio of its induction factor (IF % luminescence) to that of the reference molecule epoxomicin (IF=100%; see data presented in the table below).
Thus, the test established by Pierre-Fabre is a cellular test that has the advantage, compared to a purely enzymatic test, of detecting only products capable of penetrating the cell.
Two cell lines are used for this test: DLD-1 RF and DLD-1 4Ub-Luc. The culture medium used is as follows: • MEM • 5% fetal calf serum • 5 ml of penicillin-streptomycin • 2.5 ml of FUNGIZONE® (Amphotericin B) • 10 ml of […]
Day 1: Inoculate white 96-well culture-treated plates (PerkinElmer White ViewPlate, product no. 6005181) with 100 μl of 1·10^5 c/ml cell suspension per well. Incubate for 24 hours so that the cells adhere. On each plate five columns will be inoculated with DLD-1 4Ub-Luc and five others with DLD-1 RF according to diagram 1 below.
Day 2: Remove the medium by turning the plates upside down on cotton, and then carry out the treatment with the compounds of the invention, with solvent alone or with a reference compound such as epoxomicin. […]
The columns are paired (examples 2 and 8, 3 and 9, 4 and 10 and 5 and 11) and treated with the same compound. Columns 6 and 7 receive the experimental control, namely 0.1% DMSO in culture medium for wells B, C, D, and E of columns 6 and 7, and the positive control (10^−7 M epoxomicin) in wells F and G.
After incubation, turn the plate upside down on cotton to empty the wells, rinse with 50 μl of PBS to remove any trace of the cytotoxin tested and then add 50 μl of 5× passive lysis buffer (Promega, product no. E1941) diluted to ⅕ in water. Shake energetically using a plate shaker for 5 to 10 minutes at room temperature before freezing at −20° C.
Luciferase activity is measured using a Luciferase Assay System 10-Pack kit (Promega, product no. E1501).
On the day luciferase activity is to be measured, defrost the plates and wait until they have returned to room temperature. The optimal temperature for luciferase activity is 20-25° C.
Reconstitute the firefly luciferase substrate by defrosting the buffer and then adding 10 ml of buffer to the bottle containing the freeze-dried substrate. Wait until the solution is at room temperature before beginning the assay. […]

[1] = concentration tested 5 · 10^−6 M
[2] = concentration tested 5 · 10^−7 M

SMILES | relative induction factor (IF % luminescence) versus epoxomicin [1] [%] | relative induction factor (IF % luminescence) versus epoxomicin [2] [%] | relative induction factor (IF % luminescence) versus epoxomicin (concentration tested 10^−5 M) [%] | relative induction factor (IF % luminescence) versus epoxomicin (concentration tested 10^−6 M) [%]
C=C(C(=O)[C@H](O)[C@@H](C)[C@H]1[C@@H](OC(C)=O)C[C@@]2(C)[C@@H]3CC[C@H]4[C@H](C)C(=O)C=C[C@@]45C[C@@]35CC[C@]12C)[C@@H](C)CO [Compound 1, 22-deacetyl-neoboutomellerone] | 28 | 1 | 3 | 45
C=C(C(=O)[C@H](OC(C)=O)[C@@H](C)[C@H]1[C@@H](OC(C)=O)C[C@@]2(C)[C@@H]3CC[C@H]4[C@H](C)C(=O)C=C[C@@]45C[C@@]35CC[C@]12C)[C@@H](C)CO [Compound 2, Neoboutomellerone] | 37 | 2 | 4 | 48
C=C(C(=O)[C@H](OC(C)=O)[C@@H](C)[C@H]1[C@@H](OC(C)=O)C[C@@]2(C)C3CCC4C(C)C(=O)C=CC45CC35CC[C@]12C)[C@@H](C)CO (stereo partly drawn) [Compound 4, Diastereoisomer of Ring A of Neoboutomellerone] | 84 | – | 24 | 2
C=C(C(=O)[C@H](OC(C)=O)[C@@H](C)[C@H]1[C@@H](OC(C)=O)C[C@@]2(C)[C@@H]3C[C@@H](O)[C@H]4[C@H](C)C(=O)C=C[C@@]45C[C@@]35CC[C@]12C)[C@@H](C)CO [Compound 6, 6-hydroxy-neoboutomellerone] | 31 | – | – | 5
C=C(C(=O)[C@H](O)[C@@H](C)[C@H]1[C@@H](OC(C)=O)C[C@@]2(C)[C@@H]3CC[C@H]4[C@H](C)C(=O)C=C[C@@]45C[C@@]35CC[C@]12C)C(C)C [Compound 7, 22-deacetyl,26-dehydroxy-neoboutomellerone] | 65 | – | 21 | 2
C=C(C(=O)[C@H](OC(C)=O)[C@@H](C)[C@H]1[C@@H](OC(C)=O)C[C@@]2(C)[C@@H]3CC[C@H]4[C@H](C)C(=O)C=C[C@@]45C[C@@]35CC[C@]12C)C(C)C [Compound 8, 26-dehydroxy-neoboutomellerone] | 74 | – | 19 | 7
CC(=O)O[C@H]1C[C@@]2(C)[C@@H]3CC[C@H]4[C@H](C)C(=O)C=C[C@@]45C[C@@]35CC[C@]2(C)[C@H]1[C@H](C)[C@@H](OC(C)=O)C(=O)C=C(C)C [Compound 9, 26-dehydroxy,24,25-dehydro-nor-neoboutomellerone] | 34 | – | 44 | 1
CC(=O)O[C@H]1C[C@@]2(C)[C@@H]3CC[C@H]4[C@H](C)C(=O)C=C[C@@]45C[C@@]35CC[C@]2(C)[C@H]1[C@H](C)[C@@H](O)C(=O)C=C(C)C [Compound 10, 22-deacetyl,26-dehydroxy,24,25-dehydro-nor-neoboutomellerone] | 5 | – | 53 | 1
C=C(C(=O)[C@H](OC(C)=O)[C@@H](C)[C@H]1[C@@H](OC(C)=O)C[C@@]2(C)[C@@H]3CC[C@H]4[C@H](C)C(=O)CC[C@@]45C[C@@]35CC[C@]12C)[C@@H](C)CO [Compound 11, 1,2-dihydro-neoboutomellerone] | 45 | – | 48 | 1
C=C(C(=O)[C@H](OC(C)=O)[C@@H](C)[C@H]1[C@@H](OC(C)=O)C[C@@]2(C)[C@@H]3[C@H]4O[C@H]4[C@H]4[C@H](C)C(=O)C=C[C@@]45C[C@@]35CC[C@]12C)[C@@H](C)CO [Compound 12, 6,7-epoxy-neoboutomellerone] | 72 | – | 15 | 3
C=C(C(=O)C(OC(C)=O)C(C)[C@H]1[C@@H](OC(C)=O)C[C@@]2(C)[C@@H]3CC[C@H]4[C@H](C)C(=O)C=C[C@@]45C[C@@]35CC[C@]12C)C(C)CO (stereo partly drawn) [Compound 13, Diastereoisomer on the Side Chain of Neoboutomellerone] | 71 | – | 60 | 2
C=C(C(=O)[C@H](O)[C@@H](C)[C@H]1[C@@H](OC(C)=O)C[C@@]2(C)[C@@H]3CC[C@H]4[C@H](C)C(=O)CC[C@@]45C[C@@]35CC[C@]12C)[C@@H](C)CO [Compound 14, 1,2-dihydro-22-deacetyl-neoboutomellerone] | 10 | – | 77 | 1
C=C(C(=O)[C@H](O)[C@@H](C)[C@H]1[C@@H](OC(C)=O)C[C@@]2(C)[C@@H]3CC[C@H]4[C@H](C)C(=O)C[C@H](O)[C@@]45C[C@@]35CC[C@]12C)[C@@H](C)CO [Compound 15, 1-hydroxy-2-hydro-22-deacetyl-neoboutomellerone] | 11 | – | 74 | 2
C=C(C(=O)[C@H](O)[C@@H](C)[C@H]1[C@@H](OC(C)=O)C[C@@]2(C)[C@@H]3C[C@@H](O)[C@H]4[C@H](C)C(=O)C=C[C@@]45C[C@@]35CC[C@]12C)[C@@H](C)CO [Compound 16, 6-hydroxy-22-deacetyl-neoboutomellerone] | 35 | – | – | 1
C=C(C(=O)[C@H](O)[C@@H](C)[C@H]1[C@@H](OC(C)=O)C[C@@]2(C)C3CCC4[C@H](C)C(=O)C=C[C@@]45C[C@@]35CC[C@]12C)[C@@H](C)COC(C)=O (stereo partly shown) [Compound 17, 26-acetyl-22-deacetyl-neoboutomellerone] | 29 | 2 | 6 | 26
